According to publication PMC12490008 (Environmental Science & Technology, 2025):
*1 amine or outer side, *2 acyl side, *3 side chain or, on linkers, in order; H or OH if unused. Where a SMILES comes first, the peptide text is derived from it. Bridges are numbered along the chain shown (N, C = ends). [ ]: non-standard residue; d: D form. Adda = CO[C@@H](Cc1ccccc1)[C@@H](C)/C=C(C)/C=C/[C@H](N[*:1])[C@H](C)C(=O)[*:2]; dAsp(3S-Me) = C[C@H](C(=O)[*:3])[C@@H](N[*:1])C(=O)[*:2]; d(γGlu) = O=C(O)[C@@H](CCC(=O)[*:2])N[*:1]; hTyr = N[C@@H](CCc1ccc(O)cc1)C(=O)O; NMeA = CN[C@@H](C)C(=O)O; Abu = CC[C@H](N)C(=O)O; NMeDha = C=C(NC)C(=O)O; CO = O=C([*:1])[*:2]

Columns and labels:
[1] = system: River Chriesbach biofilm suspensions
[2] = system: River Chriesbach biofilm suspension (100%, 10%, 1%)
[3] = system: River Chriesbach biofilm suspension
[4] = system: River Chriesbach biofilm suspension (100%)
[5] = system: River Chriesbach river water
[6] = system: River Glatt biofilm suspension
[7] = system: River Mönschaltorfer Aa biofilm suspension
[8] = system: lake Greifensee water and three rivers

Compound	biodegradability in biofilm suspensions (in words) [1]	1d removal, 1% biofilm [2]	1d removal, 10% biofilm [2]	1d removal, 100% biofilm [2]	Half-lives (h), 1% biofilm [2]	Half-lives (h), 10% biofilm [2]	Half-lives (h), 100% biofilm [2]	removal within 3 days [3]	1.3d removal, 2% metabolite [4]	1.3d removal, 10% metabolite [4]	1.3d removal, 100% metabolite [4]	Half-lives (h), 100% metabolite [4]	1d removal, River water [5]	Half-lives (h), River water [5]	further results
CC[C@H](C)[C@@H]1NC(=O)[C@H](NC(=O)N[C@@H](Cc2c[nH]c3ccccc23)C(=O)O)CCCCNC(=O)[C@H](Cc2ccccc2)NC(=O)[C@H](C)N(C)C(=O)[C@H](CCc2ccc(O)cc2)NC1=O [Ferintoic acid B] ({Trp-CO}-[dK]I[hTyr][NMeA]F; lactam 1-C)	did not show detectable biotransformation	–	–	–	–	–	–	–	–	–	–	–	–	–	–
C=C1C(=O)N[C@H](C)C(=O)N[C@@H](CCc2ccc(O)cc2)C(=O)N[C@@H](C(=O)O)[C@H](C)C(=O)N[C@@H](CCCNC(=N)N)C(=O)N[C@@H](/C=C/C(C)=C/[C@H](C)[C@H](Cc2ccccc2)OC)[C@H](C)C(=O)N[C@@H](C(=O)O)CCC(=O)N1C [MC-HtyR] (R[Adda][d(γGlu)][NMeDha][dA][hTyr][dAsp(3S-Me)]-OH; lactam N-7)	biodegradable	-13%	19%	17%	n.d.(decay)	n.d.(decay)	51.8 h	31%	33%	14%	9%	70.4 h	-36%	n.d.(decay)	–
C=C1C(=O)N[C@H](C)C(=O)N[C@@H](CC(C)C)C(=O)N[C@@H](C(=O)O)[C@H](C)C(=O)N[C@@H](CC)C(=O)N[C@@H](/C=C/C(C)=C/[C@H](C)[C@H](Cc2ccccc2)OC)[C@H](C)C(=O)N[C@@H](C(=O)O)CCC(=O)N1C [MC-LAba] ([Abu][Adda][d(γGlu)][NMeDha][dA]L[dAsp(3S-Me)]-OH; lactam N-7)	remained rather stable	-6%	13%	-8%	n.d.(decay)	n.d.(decay)	n.d.(decay)	< 13%	-7%	-2%	8%	n.d. (decay)	-11%	n.d.(decay)	–
O=C(O)c1ccccc1 [benzoic acid, reference compound]	–	–	–	–	–	–	–	–	–	–	–	–	–	–	removal of benzoic acid after 8 h [6]: 3%; removal of benzoic acid after 24 h [6]: 75%; removal of benzoic acid after 8 h [7]: 41%; removal of benzoic acid after 24 h [7]: 84%; biotransformation during incubation in surface waters [8]: degraded within hours; removal of benzoic acid after 1 day, 1% density [2]: 62%; removal of benzoic acid after 1 day, 10% density [2]: 77%; removal of benzoic acid after 1 day, 100% density [2]: 97%; removal of benzoic acid after 8 h [3]: 72%; removal of benzoic acid after 24 h [3]: 100%; removal of benzoic acid within 4 h [4]: 94-100%
Anabaenopeptin 871	did not show detectable biotransformation	–	–	–	–	–	–	–	–	–	–	–	–	–	–
Anabaenopeptin D	did not show detectable biotransformation	–	–	–	–	–	–	–	–	–	–	–	–	–	–
Oscillamide Y	–	1%	28%	86%	191.5 h	101.7 h	11.1 h	32-35%	100%	98%	51%	33.9 h	-24%	n.d.(decay)	Lag-time (h), 1% biofilm [2]: 0.0 h; Lag-time (h), 10% biofilm [2]: 99.6 h; Lag-time (h), 100% biofilm [2]: 9.4 h; Half-lives (h), 2% metabolite [4]: 7.1 h; Half-lives (h), 10% metabolite [4]: 12.8 h; Lag-time (h), 2% metabolite [4]: 6.8 h; Lag-time (h), 10% metabolite [4]: 11.7 h; Lag-time (h), 100% metabolite [4]: 33.8 h; Lag-time (h), River water [5]: n.d.(decay); expected river water half-lives [5]: 7.2 to 8.0 days
[D-Asp3]MC‐(H4)YR [[D-Asp3]MC-(H4)YR]	biodegradable	6%	31%	94%	–	–	7.6 h	86%	100%	100%	94%	11.0 h	-24%	–	Lag-time (h), 1% biofilm [2]: 108.8 h; Lag-time (h), 10% biofilm [2]: 56.4 h; Lag-time (h), 100% biofilm [2]: 5.8 h; half-life, 1% biofilm [2]: 120 h; half-life, 10% biofilm [2]: 62.4 h; Lag-time (h), 100% metabolite [4]: 1.1 h; Lag-time (h), River water [5]: 168.0 h; degradation in ambient river water [5]: detectable degradation; half-life, river water [5]: 170 h
